According to patent US12599136B2, “Substituted isophthalic acid diamides and their use as herbicides” (Bayer Aktiengesellschaft, priority 2020, dated 2026):

Columns and labels:
Assay type in all cases: in vivo
Echinochloa crus-galli [1] = assay: Pre-emergence herbicidal action against ECHCG; details: visual score after 3 weeks vs untreated controls
Summary of the method: (§1)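 Seeds sown in sandy loam, soil-covered; compound sprayed on soil surface pre-emergence. Application: WP/EC, 600–800 l/ha, 0.2% wetting agent. Readout: visual % damage at 3 weeks.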

Amaranthus retroflexus [2] = assay: Pre-emergence herbicidal action against AMARE; details: visual score after 3 weeks vs untreated controls
Summary of the method: as §1

Setaria viridis [3] = assay: Pre-emergence herbicidal action against SETVI
Summary of the method: as §1

Avena fatua [4] = assay: Pre-emergence herbicidal action against AVEFA; details: visual score after 3 weeks vs untreated controls
Summary of the method: as §1

Hordeum murinum [5] = assay: Post-emergence herbicidal action against HORMU
Summary of the method: (§2)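 Sandy loam, greenhouse; treatment 2–3 weeks after sowing, one-leaf stage. Aqueous suspension or emulsion from WP/EC sprayed on foliage (600–800 l/ha, 0.2% wetting agent). Readout: visual % action, ~3 weeks.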

Avena fatua [6] = assay: Post-emergence herbicidal action against AVEFA; details: visual assessment about 3 weeks after treatment
Summary of the method: as §2

Alopecurus myosuroides [7] = assay: Pre-emergence herbicidal action against ALOMY; details: visual score after 3 weeks vs untreated controls
Summary of the method: as §1

Pharbitis purpurea [8] = assay: Post-emergence herbicidal action against PHBPU; details: visual assessment about 3 weeks after treatment
Summary of the method: as §2

Abutilon theophrasti [9] = assay: Pre-emergence herbicidal action against ABUTH; details: visual score after 3 weeks vs untreated controls
Summary of the method: as §1

Stellaria media [10] = assay: Pre-emergence herbicidal action against STEME
Summary of the method: as §1

Pharbitis purpurea [11] = assay: Pre-emergence herbicidal action against PHBPU; details: 320 g/ha; visual score after 3 weeks vs untreated controls
Summary of the method: as §1

Veronica persica [12] = assay: Post-emergence herbicidal action against VERPE; details: visual assessment about 3 weeks after treatment
Summary of the method: as §2

Polygonum convolvulus [13] = assay: Post-emergence herbicidal action against POLCO; details: 80 g/ha, visual assessment about 3 weeks after treatment
Summary of the method: as §2

Lolium rigidum [14] = assay: Pre-emergence herbicidal action against LOLRI; details: 320 g/ha
Summary of the method: as §1

Echinochloa crus-galli [15] = assay: Post-emergence herbicidal action against ECHCG; details: visual assessment about 3 weeks after treatment
Summary of the method: as §2

Cyperus esculentus [16] = assay: Pre-emergence herbicidal action against CYPES; details: visual score after 3 weeks vs untreated controls
Summary of the method: as §1

Matricaria inodora [17] = assay: Pre-emergence herbicidal action against MATIN; details: visual score after 3 weeks vs untreated controls
Summary of the method: as §1

Hordeum murinum [18] = assay: Pre-emergence herbicidal action against HORMU; details: 320 g/ha; visual score after 3 weeks vs untreated controls
Summary of the method: as §1

Stellaria media [19] = assay: Post-emergence herbicidal action against STEME; details: visual assessment about 3 weeks after treatment
Summary of the method: as §2

Polygonum convolvulus [20] = assay: Pre-emergence herbicidal action against POLCO; details: 320 g/ha
Summary of the method: as §1

Alopecurus myosuroides [21] = assay: Post-emergence herbicidal action against ALOMY
Summary of the method: as §2

Lolium rigidum [22] = assay: Post-emergence herbicidal action against LOLRI; details: 80 g/ha
Summary of the method: as §2

Viola tricolor [23] = assay: Pre-emergence herbicidal action against VIOTR
Summary of the method: as §1

Abutilon theophrasti [24] = assay: Post-emergence herbicidal action against ABUTH
Summary of the method: as §2

Viola tricolor [25] = assay: Post-emergence herbicidal action against VIOTR
Summary of the method: as §2

Cyperus esculentus [26] = assay: Post-emergence herbicidal action against CYPES; details: visual assessment about 3 weeks after treatment
Summary of the method: as §2

Amaranthus retroflexus [27] = assay: Post-emergence herbicidal action against AMARE; details: visual assessment about 3 weeks after treatment
Summary of the method: as §2

Matricaria inodora [28] = assay: Post-emergence herbicidal action against MATIN; details: visual assessment about 3 weeks after treatment
Summary of the method: as §2

Setaria viridis [29] = assay: Post-emergence herbicidal action against SETVI; details: visual assessment about 3 weeks after treatment
Summary of the method: as §2

Veronica persica [30] = assay: Pre-emergence herbicidal action against VERPE
Summary of the method: as §1

SMILES: CCn1nnnc1NC(=O)c1ccc(C(F)(F)F)c(C(=O)N(C)CC2CC2)c1Cl [Example 2-126]
- Pre-emergence action against ECHCG (Echinochloa crus-galli [1]; 80 g/ha): 80%
- Pre-emergence action against ECHCG (Echinochloa crus-galli [1]; 320 g/ha): 100%
- Pre-emergence action against AMARE (Amaranthus retroflexus [2]; 20 g/ha): 90%
- Pre-emergence action against AMARE (Amaranthus retroflexus [2]; 80 g/ha): 100%
- Pre-emergence action against AMARE (Amaranthus retroflexus [2]; 320 g/ha): 100%
- Pre-emergence action against SETVI (Setaria viridis [3]; 80 g/ha): 100%
- Pre-emergence action against SETVI (Setaria viridis [3]; 320 g/ha): 100%
- Pre-emergence action against AVEFA (Avena fatua [4]; 80 g/ha): 80%
- Pre-emergence action against AVEFA (Avena fatua [4]; 320 g/ha): 100%
- Post-emergence action against HORMU in % (Hordeum murinum [5]; 5 g/ha): 80%
- Post-emergence action against HORMU in % (Hordeum murinum [5]; 20 g/ha): 90%
- Post-emergence action against HORMU in % (Hordeum murinum [5]; 80 g/ha): 100%
- Post-emergence action against AVEFA in % (Avena fatua [6]; 20 g/ha): 100%
- Post-emergence action against AVEFA in % (Avena fatua [6]; 80 g/ha): 100%
- Pre-emergence action against ALOMY (Alopecurus myosuroides [7]; 80 g/ha): 80%
- Pre-emergence action against ALOMY (Alopecurus myosuroides [7]; 320 g/ha): 100%
- Post-emergence action against PHBPU in % (Pharbitis purpurea [8]; 5 g/ha): 90%
- Post-emergence action against PHBPU in % (Pharbitis purpurea [8]; 20 g/ha): 100%
- Post-emergence action against PHBPU in % (Pharbitis purpurea [8]; 80 g/ha): 100%
- Pre-emergence action against ABUTH (Abutilon theophrasti [9]; 20 g/ha): 100%
- Pre-emergence action against ABUTH (Abutilon theophrasti [9]; 80 g/ha): 100%
- Pre-emergence action against ABUTH (Abutilon theophrasti [9]; Dosage column 320 g/ha (heading prints 3200 g/ha)): 100%
- Pre-emergence action against STEME (Stellaria media [10]; 20 g/ha): 80%
- Pre-emergence action against STEME (Stellaria media [10]; 320 g/ha): 90%
- Pre-emergence action against PHBPU (Pharbitis purpurea [11]): 100%
- Post-emergence action against VERPE in % (Veronica persica [12]; 20 g/ha): 80%
- Post-emergence action against VERPE in % (Veronica persica [12]; 80 g/ha): 90%
- Post-emergence action against POLCO in % (Polygonum convolvulus [13]): 80%
- Pre-emergence action against LOLRI (Lolium rigidum [14]): 90%
- Post-emergence action against ECHCG in % (Echinochloa crus-galli [15]; 5 g/ha): 90%
- Post-emergence action against ECHCG in % (Echinochloa crus-galli [15]; 20 g/ha): 100%
- Post-emergence action against ECHCG in % (Echinochloa crus-galli [15]; 80 g/ha): 100%
- Pre-emergence action against CYPES (Cyperus esculentus [16]; 80 g/ha): 80%
- Pre-emergence action against CYPES (Cyperus esculentus [16]; 320 g/ha): 90%
- Pre-emergence action against MATIN (Matricaria inodora [17]; 20 g/ha): 80%
- Pre-emergence action against MATIN (Matricaria inodora [17]; 80 g/ha): 90%
- Pre-emergence action against MATIN (Matricaria inodora [17]; 320 g/ha): 100%
- Pre-emergence action against HORMU (Hordeum murinum [18]): 100%
- Post-emergence action against STEME in % (Stellaria media [19]; 5 g/ha): 100%
- Post-emergence action against STEME in % (Stellaria media [19]; 20 g/ha): 100%
- Post-emergence action against STEME in % (Stellaria media [19]; 80 g/ha): 100%
- Pre-emergence action against POLCO (Polygonum convolvulus [20]): 100%
- Post-emergence action against ALOMY (Alopecurus myosuroides [21]; 5 g/ha): 80%
- Post-emergence action against ALOMY (Alopecurus myosuroides [21]; 20 g/ha): 90%
- Post-emergence action against ALOMY (Alopecurus myosuroides [21]; 80 g/ha): 100%
- Post-emergence action against LOLRI in % (Lolium rigidum [22]): 80%
- Pre-emergence action against VIOTR (Viola tricolor [23]; 20 g/ha): 80%
- Pre-emergence action against VIOTR (Viola tricolor [23]; 80 g/ha): 100%
- Pre-emergence action against VIOTR (Viola tricolor [23]; 320 g/ha): 100%
- Post-emergence action against ABUTH (Abutilon theophrasti [24]; 5 g/ha): 80%
- Post-emergence action against ABUTH (Abutilon theophrasti [24]; 20 g/ha): 100%
- Post-emergence action against ABUTH (Abutilon theophrasti [24]; 80 g/ha): 100%
- Post-emergence action against VIOTR in % (Viola tricolor [25]; 5 g/ha): 100%
- Post-emergence action against VIOTR in % (Viola tricolor [25]; 20 g/ha): 100%
- Post-emergence action against VIOTR in % (Viola tricolor [25]; 80 g/ha): 100%
- Post-emergence action against CYPES in % (Cyperus esculentus [26]; 20 g/ha): 80%
- Post-emergence action against CYPES in % (Cyperus esculentus [26]; 80 g/ha): 90%
- Post-emergence action against AMARE in % (Amaranthus retroflexus [27]; 5 g/ha): 100%
- Post-emergence action against AMARE in % (Amaranthus retroflexus [27]; 20 g/ha): 100%
- Post-emergence action against AMARE in % (Amaranthus retroflexus [27]; 80 g/ha): 100%
- Post-emergence action against MATIN in % (Matricaria inodora [28]; 5 g/ha): 80%
- Post-emergence action against MATIN in % (Matricaria inodora [28]; 20 g/ha): 100%
- Post-emergence action against MATIN in % (Matricaria inodora [28]; 80 g/ha): 100%
- Post-emergence action against SETVI in % (Setaria viridis [29]; 5 g/ha): 100%
- Post-emergence action against SETVI in % (Setaria viridis [29]; 20 g/ha): 100%
- Post-emergence action against SETVI in % (Setaria viridis [29]; 80 g/ha): 100%
- Pre-emergence action against VERPE (Veronica persica [30]; 80 g/ha): 80%
- Pre-emergence action against VERPE (Veronica persica [30]; 320 g/ha): 90%
